Laboratory results: ChEMBL document CHEMBL5532646, “Discovery of 4-(N-dithiobenzyl piperazine)-1,8-naphthalimide as a potent multi-target antitumor agent with good efficacy, limited toxicity, and low resistance” (Eur J Med Chem, 2024)
Calls of active or inactive are those of the source. The rule behind the calls is not given here.

Legend:
T-24 [1] = test: Induction of autophagy in human T24 cells at 5 uM incubated for 24 hrs by KEGG analysis; format: functional, cell-based
A549/CDDP = test: Antiproliferative activity against human A549/DDP cells incubated for 48 hrs by MTT assay; format: functional, cell-based
T-24 [2] = test: Upregulation of ERK1/2 phosphorylation in human T24 cells incubated for 24 hrs by Western blot analysis; format: functional, cell-based; conditions: dose 2-8 µM
T-24 [3] = test: Antitumor activity against human T24 cells assessed as effect on PI3K-AKT signaling pathway at 5 uM incubated for 24 hrs by TMT/iTRAQ analysis; format: functional, cell-based
[4] = Toxicity in nude mouse model xenografted with human T24 cells assessed as pathological change in heart at 15 mg/kg, ip administered once every two days for 21 days; format: organism-based, T-24; conditions: in vivo, 504 h, time 21 day
T-24 [5] = test: Induction of ferroptosis in human T24 cells assessed as increase in FACL4 level at 5 uM incubated for 24 hrs by Western blot analysis; format: functional, cell-based
T-24 [6] = test: Induction of cell cycle arrest in human T24 cells assessed as increase in p21 level at 2 to 8 uM by Western blot analysis; format: functional, cell-based; conditions: dose 2-8 µM
T-24 [7] = test: Induction of ferroptosis in human T24 cells assessed as ruptured mitochondria at 5 uM incubated for 24 hrs by TEM analysis; format: functional, cell-based
T-24 [8] = test: Downregulation of pAKT1 at S473 level in human T24 cells at 2 to 8 uM incubated for 24 hrs by Western blot analysis; format: functional, cell-based; conditions: dose 2-8 µM
T-24 [9] = test: Downregulation of AKT1 level in human T24 cells at 2 to 8 uM incubated for 24 hrs by Western blot analysis; format: functional, cell-based; conditions: dose 2-8 µM
T-24 [10] = test: Induction of ferroptosis in human T24 cells assessed as increase in lipid peroxide level at 5 uM incubated for 24 hrs by fluorescence based analysis; format: functional, cell-based
T-24 [11] = test: Anti-migratory activity against human T24 cells at 1 to 10 uM incubated upto 48 hrs by wound healing assay; format: functional, cell-based; conditions: dose 1-10 µM
T-24 [12] = test: Induction of apoptosis in human T24 cells assessed as increase in Bad level at 2 to 8 uM incubated for 24 hrs by Western blot analysis; format: functional, cell-based; conditions: dose 2-8 µM
T-24 [13] = test: Induction of ferroptosis in human T24 cells assessed as increase in iron level at 5 uM incubated for 24 hrs by FerrOrange probe based confocal microscopy; format: functional, cell-based
T-24 [14] = test: Induction of cell cycle arrest at G0/G1 phase in human T24 cells at 8 uM incubated for 24 hrs by flow cytometry (reference value: 75.31 %); format: functional
T-24 [15] = test: Induction of cell cycle arrest at S phase in human T24 cells at 8 uM incubated for 24 hrs by flow cytometry (reference value: 12.39 %); format: functional
T-24 [16] = test: Anti-migratory activity against human T24 cells at 5 uM by wound healing assay; format: functional, cell-based; conditions: time <= 48.0 hrs, TDE = time-dependent effect
HK-2 = test: Antiproliferative activity against human HK-2 cells incubated for 48 hrs by MTT assay; format: functional, cell-based; conditions: HK-2, 48 h
[17] = Toxicity in nude mouse model xenografted with human HepG2 cells assessed as pathological change in liver at 15 mg/kg, ip administered once every two days for 21 days; format: organism-based; conditions: in vivo, 504 h, time 21 day
T-24 [18] = test: Induction of ferroptosis in human T24 cells assessed as increase in ROS level at 5 uM incubated for 24 hrs by DCFH-DA probe based analysis; format: functional, cell-based
T-24 [19] = test: Upregulation of fatty acid metabolism in human T24 cells at 5 uM incubated for 24 hrs by KEGG analysis; format: functional, cell-based
SK-OV-3 = test: Antiproliferative activity against human SK-OV-3 cells incubated for 48 hrs by MTT assay; format: functional, cell-based; conditions: SK-OV-3, 48 h
T-24 [20] = test: Induction of apoptosis in human T24 cells assessed as increase in cleaved caspase-3 level at 2 to 8 uM incubated for 24 hrs by Western blot analysis; format: functional, cell-based; conditions: dose 2-8 µM
T-24 [21] = test: Antitumor activity against human T24 cells assessed as effect on MAPK signaling pathway at 5 uM incubated for 24 hrs by TMT/iTRAQ analysis; format: functional, cell-based
T-24 [22] = test: Induction of ferroptosis in human T24 cells assessed as increase in superoxide anion level at 5 uM incubated for 24 hrs by DHE probe based analysis; format: functional, cell-based
T-24 [23] = test: Antiproliferative activity against human T24 cells incubated for 48 hrs by MTT assay; format: functional, cell-based; conditions: T-24, 48 h
T-24 [24] = test: Induction of ferroptosis in human T24 cells assessed as decrease in GPX4 level at 5 uM incubated for 24 hrs by Western blot analysis; format: functional, cell-based
T-24 [25] = test: Induction of apoptosis in human T24 cells at 5 uM incubated for 24 hrs by KEGG analysis; format: functional, cell-based
T-24 [26] = test: Induction of cell cycle arrest at G0/G1 phase in human T24 cells at 2 uM incubated for 24 hrs by flow cytometry (reference value: 75.31 %); format: functional
HUVEC = test: Antiproliferative activity against HUVEC cells incubated for 48 hrs by MTT assay; format: functional, cell-based; conditions: Homo sapiens
T-24 [27] = test: Antiproliferative activity against human T24 cells xenografted in nude mouse model assessed as tumor inhibition rate at 15 mg/kg, ip administered once every two days for 21 days relative to control; format: functional; conditions: T-24, 504 h, time 21 day
T-24 [28] = test: Inhibition of cell proliferation of human T24 cells at 1 to 5 uM incubated for 7 days by colony formation assay; format: functional, cell-based; conditions: dose 1-5 µM, time 7.0 day
MGC-803 = test: Antiproliferative activity against human MGC-803 cells incubated for 48 hrs by MTT assay; format: functional, cell-based; conditions: MGC-803, 48 h
T-24 [29] = test: Induction of ferroptosis in human T24 cells assessed as smaller mitochondria at 5 uM incubated for 24 hrs by TEM analysis; format: functional, cell-based
T-24 [30] = test: Induction of ferroptosis in human T24 cells assessed as increase in iron level at 5 uM incubated for 24 hrs in presence of DFO by FerrOrange probe based confocal microscopy; format: functional, cell-based
T-24 [31] = test: Induction of ferroptosis in human T24 cells assessed as increase in mitochondrial membrane density at 5 uM incubated for 24 hrs by TEM analysis; format: functional, cell-based
HepG2 = test: Antiproliferative activity against human HepG2 cells incubated for 48 hrs by MTT assay; format: functional, cell-based; conditions: HepG2, 48 h
T-24 [32] = test: Induction of cell cycle arrest in human T24 cells assessed as decrease in MCM5 level at 2 to 5 uM by Western blot analysis; format: functional, cell-based; conditions: dose 2-5 µM
T-24 [33] = test: Downregulation of mTOR level in human T24 cells at 2 to 8 uM incubated for 24 hrs by Western blot analysis; format: functional, cell-based; conditions: dose 2-8 µM
[34] = Toxicity in nude mouse model xenografted with human T24 cells assessed as pathological change in lung at 15 mg/kg, ip administered once every two days for 21 days; format: organism-based, T-24; conditions: in vivo, 504 h, time 21 day
[35] = Toxicity in nude mouse model xenografted with human HepG2 cells assessed as pathological change in lung at 15 mg/kg, ip administered once every two days for 21 days; format: organism-based; conditions: in vivo, 504 h, time 21 day
T-24 [36] = test: Induction of cell cycle arrest at G2/M phase in human T24 cells at 2 uM incubated for 24 hrs by flow cytometry (reference value: 12.30 %); format: functional
T-24 [37] = test: Induction of ferroptosis in human T24 cells assessed as reduction in mitochondrial cristae at 5 uM incubated for 24 hrs by TEM analysis; format: functional, cell-based
T-24 [38] = test: Induction of autophagy in human T24 cells assessed as appearance of autophagic vesicles at 5 uM incubated for 48 hrs by TEM analysis; format: functional, cell-based

## CN(C)CCN1C(=O)c2cccc3c(N4CCN(C(=S)SCc5ccccc5)CC4)ccc(c23)C1=O
T-24 [1]
  Activity: Active
A549/CDDP
  Activity: Active
T-24 [2]
  Activity: Dose-Dependent Effect
T-24 [3]
  Activity: Active
[4]
  Activity: Non-Toxic
T-24 [5]
  Activity: Active
T-24 [6]
  Activity: Active
T-24 [7]
  Activity: Active
T-24 [8]
  Activity: Active
T-24 [9]
  Activity: Active
T-24 [10]
  Activity: Active
T-24 [11]
  Activity: Active
T-24 [12]
  Activity: Active
T-24 [13]
  Activity: Active
T-24 [14]
  Activity: 70.18%
T-24 [15]
  Activity: 13.21%
T-24 [16]
  Activity: Tde
HK-2
  IC50: 14.9 µM
[17]
  Activity: Non-Toxic
T-24 [18]
  Activity: Active
T-24 [19]
  Activity: Active
SK-OV-3
  IC50: 1.43 µM
T-24 [20]
  Activity: Active
T-24 [21]
  Activity: Active
T-24 [22]
  Activity: Active
T-24 [23]
  IC50: 3.03 µM
T-24 [24]
  Activity: Active
T-24 [25]
  Activity: Active
T-24 [26]
  Activity: 42.37%
HUVEC
  IC50: 16.7 µM
T-24 [27]
  inhibition in vivo at 15 mg/kg: 56.3%
T-24 [28]
  inhibition: Active
MGC-803
  IC50: 5.23 µM
T-24 [29]
  Activity: Active
T-24 [30]
  Activity: inactive
T-24 [31]
  Activity: Active
HepG2
  IC50: 3.6 µM
T-24 [32]
  Activity: Active
T-24 [33]
  Activity: Active
[34]
  Activity: Non-Toxic
[35]
  Activity: Non-Toxic
T-24 [36]
  Activity: 20.7%
T-24 [37]
  Activity: Active
T-24 [38]
  Activity: Active
